Measurements reported in patent US5177112A, “Substituted 2-aminotetralins” (Whitby Research, Inc., priority 1991, dated 1993).
Read-outs that look alike come from different tables or passages of the source. One block for each compound: values may come before it.

Columns and labels:
[1] = biological target: T1, D1 receptors (Bos taurus, UniProt Q95136); test: D1 receptor specific binding, [3H]-SCH23390; design: species or system bovine
T1 construct: The caudate nuclei were dissected out and homogenized in Buffer A; from tissue; host or cells: bovine caudate nuclei membranes (brains from a local slaughterhouse)
T1 sequence (Q95136 whole entry): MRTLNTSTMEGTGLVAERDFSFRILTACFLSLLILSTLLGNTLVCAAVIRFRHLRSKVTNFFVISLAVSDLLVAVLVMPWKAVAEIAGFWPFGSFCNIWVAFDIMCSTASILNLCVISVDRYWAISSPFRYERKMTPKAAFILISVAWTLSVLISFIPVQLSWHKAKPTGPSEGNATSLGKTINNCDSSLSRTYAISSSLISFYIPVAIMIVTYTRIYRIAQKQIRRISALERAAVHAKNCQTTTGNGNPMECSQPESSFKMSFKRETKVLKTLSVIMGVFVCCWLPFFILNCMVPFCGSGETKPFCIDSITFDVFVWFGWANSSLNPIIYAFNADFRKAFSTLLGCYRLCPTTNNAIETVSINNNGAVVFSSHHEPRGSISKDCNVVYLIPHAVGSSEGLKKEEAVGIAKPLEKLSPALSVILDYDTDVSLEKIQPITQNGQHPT
Protocol: (§1) Dopamine receptor assays: Specific binding studies to test the affinity of the compounds for D1, D2 and α2 receptors were conducted using bovine caudate nuclei prepared as follows:
(§2) Bovine brains were obtained fresh from a local slaughterhouse. The caudate nuclei were dissected out and homogenized in Buffer A (50 mM Tris; 1 mM Na2 -EDTA; 5 mM KCl; 1 mM MgCl2; 2 mM CaCl2; pH 7.4) using a Brinkman Polytron. The homogenate was centrifuged at 40,000×g for 20 minutes and washed once. The pellett was resuspended in Buffer A, incubated at 37° C. for 15 minutes, then centrifuged. The pellet was washed once more, resuspended to a protein concentration of 5-10 mg/ml in Buffer A and frozen at -70° C. until used.
(§3) The following tritiated drugs were used as radioligands in the binding studies:
(§4) [^3 H]-spiperone, [^3 H]-SCH22390, and [^3 H]-ketanserin were obtained from New England Nuclear, Boston, Me.
(§5) The radioligands were incubated with various concentrations of competing drug and the appropriate membrane source for 75 minutes at room temperature for D2 receptors, 15 minutes at 37° C. for D1 receptors, or 30 minutes at room temperature for α2 receptors. Specific binding was defined using 1 μM butaclamol (D2), 1 μM SCH23390 (D1), or 1 μM yohimbine (α2). In addition the D2 assays contained 30 nM ketaserin in order to block the binding of ^3 H-spiperone to 5HT2 receptors. The assays were terminated by filtration using a 24-port Brandell cell harvester over filters that had been previously soaked in 0.1% polyethyleneimine, and the filters were washed three times by filtration of cold buffer. […] The results are presented as Ki values if the data were best fitted to a one-site model, or as KH and KL values if a two-site model produced the better fit.

[2] = biological target: T2, α2-adrenergic receptors (Rattus norvegicus, UniProt P22909); test: α2-adrenergic receptor specific binding, [3H]-Para aminoclonidine
T2 construct: from tissue; host or cells: cerebral cortex membranes of male Sprague Dawley rats
T2 sequence (P22909 1-465): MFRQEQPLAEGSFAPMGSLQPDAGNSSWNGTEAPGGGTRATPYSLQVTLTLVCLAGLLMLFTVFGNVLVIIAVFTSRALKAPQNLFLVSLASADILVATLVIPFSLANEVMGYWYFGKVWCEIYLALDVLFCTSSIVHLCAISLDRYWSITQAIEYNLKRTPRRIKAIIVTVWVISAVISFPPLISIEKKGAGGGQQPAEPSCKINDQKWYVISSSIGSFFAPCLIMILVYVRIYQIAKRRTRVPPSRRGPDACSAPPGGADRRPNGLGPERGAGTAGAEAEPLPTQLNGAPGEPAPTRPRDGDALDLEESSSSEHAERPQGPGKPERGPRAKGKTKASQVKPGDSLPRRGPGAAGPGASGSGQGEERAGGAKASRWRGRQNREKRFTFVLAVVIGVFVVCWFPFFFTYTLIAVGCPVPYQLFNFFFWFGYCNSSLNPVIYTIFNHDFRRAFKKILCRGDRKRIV
Protocol: as §1
α2-adrenergic receptors assays were conducted using the rat cerebral cortex prepared as follows:
Male Sprague Dawley rats were killed by decapitation and the brains removed. The cerebral cortices were homogenized in 50 mM Tris; 2 mM MgCl2 (pH 7.4), and centrifuged at 40,000×g for 10 minutes. The pellet was washed once, resuspended in Tris/MgCl2 and incubated with 8 units/ml adenosine deaminase at 37° C. for 30 minutes. The homogenate was centrifuged, washed once, resuspended to a protein concentration of 5-10 mg/ml and frozen at -70° C. until use.
as §3
[^3 H]-Para aminoclonidine 48-52 Ci/mmol for α2 -adrenergic receptors.
[^3 H]-paraaminoclonidine was obtained from Amersham, Arlington Heights, Ill. Yohimbine was obtained from Sigma Chemical Co., St. Louis, Mo.
as §5

[3] = biological target: T3, D2 receptors (Bos taurus, UniProt P20288); test: D2 receptor specific binding, [3H]-Spiperone; design: species or system bovine; settings: for Ki: bovine caudate nuclei, [3H]-Spiperone, 30 nM ketanserin, 75 minutes at room temperature; for increase in selectivity for D2 receptors: compared to the thienyl compound
T3 construct: The caudate nuclei were dissected out and homogenized in Buffer A; from tissue; host or cells: bovine caudate nuclei membranes (brains from a local slaughterhouse)
T3 sequence (P20288 whole entry): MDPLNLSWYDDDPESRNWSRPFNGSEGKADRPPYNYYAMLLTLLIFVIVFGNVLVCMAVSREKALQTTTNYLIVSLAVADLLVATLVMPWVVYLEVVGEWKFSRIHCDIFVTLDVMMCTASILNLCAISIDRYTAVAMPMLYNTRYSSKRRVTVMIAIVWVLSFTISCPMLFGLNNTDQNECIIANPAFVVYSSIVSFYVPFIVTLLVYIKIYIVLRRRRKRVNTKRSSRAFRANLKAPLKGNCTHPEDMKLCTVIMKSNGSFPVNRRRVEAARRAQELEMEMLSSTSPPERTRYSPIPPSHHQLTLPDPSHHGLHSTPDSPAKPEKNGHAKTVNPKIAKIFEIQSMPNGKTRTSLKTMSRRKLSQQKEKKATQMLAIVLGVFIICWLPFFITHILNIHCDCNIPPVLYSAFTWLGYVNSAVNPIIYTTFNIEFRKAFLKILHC
Protocol: as §1, §2, §3
[^3 H]-Spiperone 21-24 Ci/mmol for D2 receptors
as §4, §5

[4] = biological target: T4, D-2 dopamine receptor (Bos taurus, UniProt P20288); test: displacement of specific D-2 dopamine receptor binding of tritiated racemic 2-(N-propyl-N-2-thienylethylamino)-5-hydroxytetralin; design: homogenates of calf brain corpus striatum; from tissue; host or cells: calf brain corpus striatum homogenate; species or system calf
T4 sequence (P20288 whole entry): as above
Protocol: The pharmacological activity of the product of Example 2 was determined by examining its ability to displace the specific D-2 dopamine receptor binding of a tritium-containing racemic mixture of 2-(N-propyl-N-2-thienylethylamino)-5-hydroxytetralin to homogenates of calf brain corpus striatum.

[5] = biological target: T5, D-1 dopamine receptor (Bos taurus, UniProt Q95136); test: displacement of tritium labeled SCH 23390 at the D-1 dopamine receptor, striatum membranes; type: binding; settings: bovine brain striatum membranes
T5 construct: membranes isolated from the striatum of bovine brain; from tissue; host or cells: bovine brain striatum membranes
T5 sequence (Q95136 whole entry): as the sequence (Q95136 whole entry) above
Protocol: The activity at the D-1 dopamine receptor was tested by the method described in Raisman et al. Eur. J. Pharmacol 113: (1985), pp. 467-468, which utilizeds membranes isolated from the striatum of bovine brain. […] Thus, the 1C50 value for the compound of Example 2 is >100,000 at the D-1 receptor.

[6] = tested on: ocular function; settings: in vivo; cited from earlier work
[7] = biological target: T4, D-2 dopamine receptor; settings: stated for contrast, no test data given; cited from earlier work
[8] = tested on: intraocular pressure; settings: man; eyedrops; cited from earlier work
[9] = tested on: intraocular pressure; settings: rabbits; cited from earlier work
[10] = tested on: intraocular pressure; settings: monkeys; cited from earlier work
[11] = bovine caudate nuclei, [3H]-SCH23390, 15 minutes at 37° C., read-out: Ki D1
[12] = rat cerebral cortex, [3H]-Para aminoclonidine, 30 minutes at room temperature, read-out: Ki α2

Compound: CCCN(CCc1cccs1)C1CCc2c(O)cccc2C1 (centres unmarked)
Ki [1]: 1000 nM | Ki [2]: 190 nM | Ki [3]: 110 nM

Ki [1, 11]: 1950 nM | Ki [3]: 130 nM | increase in selectivity for D2 receptors [3]: two-fold
Compound: CCCN(CCc1csc2ccccc12)C1CCc2c(O)cccc2C1 (centres unmarked)
Ki [2, 12]: 250 nM

Ki [1, 11]: 6460 nM | Ki [3]: 80 nM | increase in selectivity for D2 receptors [3]: six and a half-fold
Compound: CCCN(CCc1ccc2ccccc2c1)C1CCc2c(O)cccc2C1 (centres unmarked)
Ki [2, 12]: 2500 nM

Compound: CCCN(CCc1cccs1)C1CCc2c(O)cccc2C1 (racemic) [2-(N-propyl-N-2-thienylethylamino)-5-hydroxytetralin]
Kd [4]: 1.6 nM | bmax ([4]; tritium-containing racemic mixture, calf brain corpus striatum homogenates): 26.0 picomoles/gm

IC50 ([5]; D-1, tritium labeled SCH 23390, read-out: 1C50 value at the D-1 receptor): > 100000 nM | displacement of tritium labeled SCH 23390 ([5]; concentration range 10^-11 to 10^-4 moles): did not displace | IC50 ([4]; D-2, calf brain corpus striatum homogenates, read-out: IC50 (concentration of drug required to inhibit the binding of labelled drug by 50 percent)): 0.56 nM
Compound: CCCN(CCc1cc2ccccc2s1)C1CCc2c(O)cccc2C1 (centres unmarked) [Example 2, 2-(N-n-propyl-N-2-[2-benzothienyl]ethylamino)-5-hydroxytetralin]
D-2 as opposed to D-1 binding selectivity ([4]; comparison of D-2 and D-1 binding): extremely selective D-2 as opposed to D-1 binding

Compound: CCCN(CCC)CCc1ccc(O)c(O)c1 [N,N-di-n-propyldopamine]
alteration of ocular function [6]: may alter ocular function

Compound: CN(C)CCc1ccc(O)c(O)c1 [N,N-dimethyl-dopamine]
alteration of ocular function [6]: may alter ocular function

Compound: CNCCc1ccc(O)c(O)c1 [N-methyldopamine]
alteration of ocular function [6]: may alter ocular function | mechanism: aqueous humor formation [6]: suppressing aqueous humor formation

Compound: CN1CCc2cccc3c2[C@H]1Cc1ccc(O)c(O)c1-3 [apomophine]
binding at the D-1 and D-2 receptor (comparison substances) [7]: substantially equivalent binding at the D-1 and D-2 receptor

Compound: CC(C)C[C@H]1C(=O)N2CCC[C@H]2[C@]2(O)O[C@](NC(=O)[C@@H]3C=C4c5cccc6[nH]c(Br)c(c56)C[C@H]4N(C)C3)(C(C)C)C(=O)N12 [bromocriptine]
intraocular pressure [8]: may lower intraocular pressure | intraocular pressure [9]: lower the intraocular pressure of rabbits

Compound: NCCc1ccc(O)c(O)c1 [dopamine]
binding at the D-1 and D-2 receptor (comparison substances) [7]: substantially equivalent binding at the D-1 and D-2 receptor

Compound: CN1C[C@H](CC#N)C[C@@H]2c3cccc4[nH]c(Cl)c(c34)C[C@H]21 [lergotrile]
intraocular pressure [10]: lowered the intraocular pressure of monkeys | intraocular pressure [9]: lower the intraocular pressure of rabbits

Compound: CCCN1C[C@H](CSC)C[C@@H]2c3cccc4[nH]cc(c34)C[C@H]21 [pergolide]
intraocular pressure [10]: lowered the intraocular pressure of monkeys | intraocular pressure [9]: lower the intraocular pressure of rabbits
